# Experimental data taken from US8138188B2, “Melanocortin type 4 receptor agonist piperidinoylpyrrolidines” (Pfizer Inc., priority 2006, dated 2012).
# How the values were obtained:
# MC4 receptor (MC4R) = biological target: T1, MC4 receptor (MC4R) (Homo sapiens, UniProt P32245); experiment: Nle4, D-Phe7-α-MSH inhibition at the MC4 receptor (SPA competition binding vs [125I] Nle4, D-Phe7-α-MSH); settings: vs 0.06 nM [125I] Nle4, D-Phe7-α-MSH, CHO-CRE MC4R cell membranes
# T1 construct: expressed in transfected cells; host or cells: CHO-CRE MC4R cells (membranes)
# Excerpt: Nle4, D-Phe7-α-MSH Inhibition at the MC4 Receptor
# (§1) Nle4, Nle4, D-Phe7-α-MSH is a stable analogue of melanocyte-stimulating hormone (MSH), which is an agonist at the MC4 receptor (MC4R). Compounds can be evaluated for their ability to inhibit Nle4, Nle4, D-Phe7-α-MSH binding to membranes from cells expressing the MC4R using a competition binding assay versus [^125I] Nle4, D-Phe7-α-MSH.
# Cells expressing the MC4R were subject to homogenisation and the membrane fragment isolated by differential centrifugation. CHO-CRE MC4R cell membranes were coupled to PVT-PEI-WGA SPA Beads type A for 2 hours, spun at 1000 RPM for 5 mins and suspended to a concentration of 300 ug bead/ml (0.15 ug membrane, 15 ug bead per well). Bead/membrane mix was incubated with 0.06 nM [^125I] Nle4, D-Phe7-α-MSH and 11 half-log concentrations of competitor ligand, in duplicate, in a total volume of 50 μl buffer per well (25 mM HEPES, 1 mM MgCl2, 2.5 mM CaCl2, 1% Pluronic F68, 1 complete EDTA protease inhibitor tablet/50 ml pH7). Non-specific binding was determined by the inclusion of 100 nM SHU9119. The reaction was initiated by the addition of bead/membranes and plates were incubated at room temperature for 12 hours (the first hour on a plate shaker), after which the amount of radioactivity present was determined using a Wallac plate counter. Ki values were determined by data analysis using appropriate software.
# MC3 receptor (MC3R) = biological target: T2, MC3 receptor (MC3R) (Homo sapiens, UniProt P41968); experiment: Nle4, D-Phe7-α-MSH inhibition at the MC3 receptor (SPA competition binding); settings: vs 0.06 nM Nle4, D-Phe7-α-MSH, CHO-CRE MC3R cell membranes
# T2 construct: expressed in transfected cells; host or cells: CHO-CRE MC3R cells (membranes)
# Excerpt: Nle4, D-Phe7-α-MSH Inhibition at the MC3 Receptor
# as §1, with “Nle4,” for “Nle4, Nle4,”, “MC3” for “MC4”, “(MC3R).” for “(MC4R).”, “MC3R” for “MC4R”
# Cells expressing the MC3R were subject to homogenisation and the membrane fragment isolated by differential centrifugation. CHO-CRE MC3R cell membranes were coupled to PVT-PEI-WGA SPA Beads type A for 2 hours, spun at 1000 RPM for 5 mins and suspended to a final assay concentration of 800 ug bead/ml (1.2 ug membrane, 40 ug bead per well). Bead/membrane mix was incubated with 0.06 nM Nle4, D-Phe7-α-MSH and 11 half-log concentrations of competitor ligand, in duplicate, in a total volume of 50 μl buffer per well (25 mM HEPES, 1 mM MgCl2, 2.5 mM CaCl2, 1% Pluronic F68, 1 complete EDTA protease inhibitor tablet/50 ml pH7).
# Non-specific binding was determined by the inclusion of 100 nM SHU9119. The reaction was initiated by the addition of bead/membranes and plates were incubated at room temperature for 12 hours (the first hour on a plate shaker), after which the amount of radioactivity present was determined using a Wallac plate counter. Ki values were determined by data analysis using appropriate software.
# CYP3A4 = biological target: T3, CYP3A4 (Homo sapiens, UniProt P08684); experiment: High density drug-drug interactions (DDI) 3 μM cocktail screen in human liver microsomes; assay type: in vitro ADME; settings: 3 uM test compound, pooled human liver microsomes, probe midazolam 2 μM; read-out: % Inhibition of 3A4 metabolism at 3 uM
# T3 construct: utilizes human liver microsomes together with isoform-specific clinical drug probes; from tissue; host or cells: human liver microsomes
# Protocol: High Density Drug-Drug Interactions (DDI) 3 μM Cocktail Screen
# A drug interaction is a situation in which a substance affects the activity of another drug, i.e. the effects are increased or decreased, or together they produce a new effect that neither produces on its own. Drug interactions may be the result of various processes but a relatively common one is where one drug affects the pharmacokinetics of another by inhibiting the cytochrome P450 that metabolises it. Because of the importance of these phenomena, assessment of the DDI potential for new chemical entities (NCEs) is considered important early on in the drug discovery process.
# The DDI cocktail screen in human liver microsomes (HLM) is run in a fully automated fashion and the aim of the screen is to provide a single-point assessment of the DDI potential of new chemical entity (NCE; tested at 3 μM) against the 4 primary cytochrome P450 enzymes, 1A2, 2D6, 2C9 and 3A4.
# The substrate cocktail approach for P450 DDI utilizes human liver microsomes together with isoform-specific clinical drug probes and permits the simultaneous measurement of the inhibition of P450 1A2, 2C9, 2D6 & 3A4 activities in a single incubation. This is run in high throughput with simultaneous detection of metabolites by LC-MS/MS. This method has been thoroughly tested and evaluated using standard compounds.
# Appearance of the metabolite of each substrate is measured over time in the presence and absence of the NCE (test compound/inhibitor) at a concentration of 3 μM. The compounds are assessed for their inhibitory potential as a percentage value and interpreted using the following scheme.
# T1 sequence (P32245 whole entry): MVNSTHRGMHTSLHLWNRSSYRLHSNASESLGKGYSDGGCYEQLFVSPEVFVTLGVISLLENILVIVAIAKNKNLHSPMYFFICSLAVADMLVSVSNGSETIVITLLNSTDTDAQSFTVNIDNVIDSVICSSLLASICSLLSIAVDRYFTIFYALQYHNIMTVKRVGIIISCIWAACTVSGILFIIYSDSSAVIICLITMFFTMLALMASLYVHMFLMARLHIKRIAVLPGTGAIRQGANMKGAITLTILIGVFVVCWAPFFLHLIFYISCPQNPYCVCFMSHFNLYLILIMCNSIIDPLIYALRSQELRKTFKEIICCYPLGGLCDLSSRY
# T2 sequence (P41968 whole entry): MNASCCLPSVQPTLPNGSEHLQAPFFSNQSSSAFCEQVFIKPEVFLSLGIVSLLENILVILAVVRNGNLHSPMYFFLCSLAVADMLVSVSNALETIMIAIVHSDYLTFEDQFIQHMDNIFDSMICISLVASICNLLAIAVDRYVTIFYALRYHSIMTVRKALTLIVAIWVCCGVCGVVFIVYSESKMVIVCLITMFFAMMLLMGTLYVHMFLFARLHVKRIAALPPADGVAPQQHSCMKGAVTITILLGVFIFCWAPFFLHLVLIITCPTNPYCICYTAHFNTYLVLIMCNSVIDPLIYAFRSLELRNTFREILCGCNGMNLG
# T3 sequence (P08684 whole entry, canonical isoform): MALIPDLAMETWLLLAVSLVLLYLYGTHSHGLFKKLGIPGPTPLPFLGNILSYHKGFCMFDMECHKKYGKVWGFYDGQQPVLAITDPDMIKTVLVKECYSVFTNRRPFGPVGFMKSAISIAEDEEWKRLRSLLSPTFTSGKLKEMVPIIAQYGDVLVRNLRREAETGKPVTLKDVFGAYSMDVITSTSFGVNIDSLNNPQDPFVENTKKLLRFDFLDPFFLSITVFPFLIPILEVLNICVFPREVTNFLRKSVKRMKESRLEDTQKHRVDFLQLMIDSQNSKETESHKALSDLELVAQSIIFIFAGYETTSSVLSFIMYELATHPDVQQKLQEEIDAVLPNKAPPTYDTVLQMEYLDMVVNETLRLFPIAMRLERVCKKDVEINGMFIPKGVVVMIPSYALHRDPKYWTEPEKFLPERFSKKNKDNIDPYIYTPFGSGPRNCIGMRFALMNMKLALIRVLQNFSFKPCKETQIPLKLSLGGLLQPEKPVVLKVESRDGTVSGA
Ki (MC4 receptor (MC4R)),Ki (MC3 receptor (MC3R)),inhibition at 3 μM (CYP3A4),Structure (SMILES)
276 nM,977 nM,19%,C[C@@H]1CN(C(=O)[C@@H]2CN(c3ccc(=O)n(C)n3)C[C@H]2c2ccc(Cl)cn2)C[C@H](C)[C@@]1(O)c1ccc(Cl)cn1 [Example 10]
112 nM,332 nM,35%,C[C@@H]1CN(C(=O)[C@@H]2CN(c3ccc(=O)n(C)n3)C[C@H]2c2ccc(Cl)cn2)C[C@H](C)[C@@]1(O)C1CCCCC1 [Example 17]
85.4 nM,568 nM,50%,CC1CN(C(=O)C2CN(c3ccc(=O)n(C)n3)CC2c2ccc(Cl)cn2)CC(C)C1(O)c1ccc(F)c(F)c1 (stereo not drawn) [Example 19]
251 nM,1020 nM,35%,COc1ccc(C2(O)C(C)CN(C(=O)C3CN(c4ccc(=O)n(C)n4)CC3c3ccc(Cl)cn3)CC2C)cc1 (stereo not drawn) [Example 20]
65.7 nM,264 nM,35%,CC1CN(C(=O)C2CN(c3ccc(=O)n(C)n3)CC2c2ccc(Cl)cn2)CC(C)C1(O)c1ccc(Cl)cc1 (stereo not drawn) [Example 23]
10.9 nM,< 0.105 nM,16%,CC1CN(C(=O)C2CN(c3cncc(F)c3)CC2c2ccc(Cl)cn2)CC(C)C1(O)c1ccc(F)cc1 (stereo not drawn) [Example 25]
150 nM,456 nM,31%,C[C@@H]1CN(C(=O)[C@@H]2CN(c3ccc(C#N)nn3)C[C@H]2c2ccc(F)cn2)C[C@H](C)[C@@]1(O)c1ccc(Cl)cc1 [Example 32]
